# From patent US11319299B2, “Substituted carboxamides as inhibitors of WDR5 protein-protein binding” (PROPELLON THERAPEUTICS INC., priority 2016, dated 2022)
# Target: WDR5 (Homo sapiens (Human), UniProt P61964)
# Experiment: Surface Plasmon Resonance (SPR) assay, KD and residence time
# Format: binding
# Settings: surface plasmon resonance (SPR) assay; read-out: WDR5 binding affinity (KD)
row,Kd [nM],Structure (SMILES)
1,275,"C[C@@H]1CN(c2cc(F)c(C3CN=C(N4CCOCC4)NC3)cc2NC(=O)c2c[nH]c(=O)cc2C(F)(F)F)C[C@H](C)N1C (stereo partly drawn) [Example 339, N-[4-fluoro-5-(2-morpholin-4-yl-1,4,5,6-tetrahydropyrimidin-5-yl)-2-[(3R,5S)-3,4,5-trimethylpiperazin-1-yl]phenyl]-6-oxo-4-(trifluoromethyl)-1H-pyridine-3-carboxamide]"
2,0.345,"C[C@@H]1CN(c2cc(F)c(-c3cnc(N4CCNCC4)nc3)cc2NC(=O)c2c[nH]c(=O)cc2C(F)(F)F)C[C@H](C)N1C [Example 158, N-[4-fluoro-5-(2-piperazin-1-ylpyrimidin-5-yl)-2-[(3R,5S)-3,4,5-trimethylpiperazin-1-yl]phenyl]-6-oxo-4-(trifluoromethyl)-1H-pyridine-3-carboxamide]"
3,0.246,"COc1cc(N2CCC=C(c3cc(NC(=O)c4c[nH]c(=O)cc4C(F)(F)F)c(N4C[C@@H](C)N(C)[C@@H](C)C4)cc3F)C2)ncn1 [Example 365, N-[4-fluoro-5-[1-(6-methoxypyrimidin-4-yl)-3,6-dihydro-2H-pyridin-5-yl]-2-[(3R,5S)-3,4,5-trimethylpiperazin-1-yl]phenyl]-6-oxo-4-(trifluoromethyl)-1H-pyridine-3-carboxamide]"
4,7.18,"C[C@@H]1CN(c2cc(F)c(C3=CCNCC3)cc2NC(=O)c2c[nH]c(=O)cc2C(F)(F)F)C[C@H](C)N1C [Example 95, N-[4-fluoro-2-[(3R,5S)-3,4,5-trimethylpiperazin-1-yl]-5-(1,2,3,6-tetrahydropyridin-4-yl)phenyl]-6-oxo-4-(trifluoromethyl)-1H-pyridine-3-carboxamide]"
5,9,"CC(C)CN1CC=C(c2cc(NC(=O)c3c[nH]c(=O)cc3C(F)(F)F)c(N3C[C@@H](C)N(C)[C@@H](C)C3)cc2F)CC1 [Example 150, N-[4-fluoro-5-[1-(2-methylpropyl)-3,6-dihydro-2H-pyridin-4-yl]-2-[(3R,5S)-3,4,5-trimethylpiperazin-1-yl]phenyl]-6-oxo-4-(trifluoromethyl)-1H-pyridine-3-carboxamide]"

# Further lines, the molecule ahead of its results:
row,Structure (SMILES),Kd [nM]
1,"CC(=O)Nc1ncc(-c2cc(NC(=O)c3c[nH]c(=O)cc3C(F)(F)F)c(N3C[C@@H](C)N(C)[C@@H](C)C3)cc2F)cn1 [Example 72, N-[5-(2-acetamidopyrimidin-5-yl)-4-fluoro-2-[(3R,5S)-3,4,5-trimethylpiperazin-1-yl]phenyl]-6-oxo-4-(trifluoromethyl)-1H-pyridine-3-carboxamide]",0.823
2,"O=C(Nc1cc(-c2cnc(N3CCOCC3)nc2)c(F)cc1N1CCN2CCOCC2C1)c1c[nH]c(=O)cc1C(F)(F)F (stereo not shown) [Example 120, N-[2-(3,4,6,7,9,9a-hexahydro-1H-pyrazino[2,1-c][1,4]oxazin-8-yl)-4-fluoro-5-(2-morpholin-4-ylpyrimidin-5-yl)phenyl]-6-oxo-4-(trifluoromethyl)-1H-pyridine-3-carboxamide]",> 200
3,"C[C@@H]1CN(c2cc(F)c(-c3ccc(C#N)cc3)cc2NC(=O)c2c[nH]c(=O)cc2C(F)(F)F)C[C@H](C)N1C [Example 100, N-[5-(4-cyanophenyl)-4-fluoro-2-[(3R,5S)-3,4,5-trimethylpiperazin-1-yl]phenyl]-6-oxo-4-(trifluoromethyl)-1H-pyridine-3-carboxamide]",0.508
4,"C[C@@H]1CN(c2cc(F)c(-c3cncc(C(N)=O)c3)cc2NC(=O)c2c[nH]c(=O)cc2C(F)(F)F)C[C@H](C)N1C [Example 179, N-[5-(5-carbamoylpyridin-3-yl)-4-fluoro-2-[(3R,5S)-3,4,5-trimethylpiperazin-1-yl]phenyl]-6-oxo-4-(trifluoromethyl)-1H-pyridine-3-carboxamide]",11.5
5,"COc1ccc(-c2cc(NC(=O)c3c[nH]c(=O)cc3C(F)(F)F)c(N3C[C@@H](C)N(C)[C@@H](C)C3)cc2F)cc1 [Example 112, N-[4-fluoro-5-(4-methoxyphenyl)-2-[(3R,5S)-3,4,5-trimethylpiperazin-1-yl]phenyl]-6-oxo-4-(trifluoromethyl)-1H-pyridine-3-carboxamide]",2.44
6,"C[C@@H]1CN(c2cc(F)c(-c3cnc(N4CCOCC4)nc3)cc2NC(=O)c2cc(F)cc(F)c2)C[C@H](C)N1C [Example 160, 3,5-difluoro-N-[4-fluoro-5-(2-morpholin-4-ylpyrimidin-5-yl)-2-[(3R,5S)-3,4,5-trimethylpiperazin-1-yl]phenyl]benzamide]",26.8

# Same assay, conditions: surface plasmon resonance (SPR); read-out: WDR5 binding affinity (KD)
row,Kd [nM],Structure (SMILES)
1,354,"COc1cc(C(F)(F)F)c(C(=O)Nc2cc(-c3cnc(N4CCOCC4)nc3)c(F)cc2N2C[C@@H](C)N(C)[C@@H](C)C2)cn1 [Example 506, N-[4-fluoro-5-(2-morpholin-4-ylpyrimidin-5-yl)-2-[(3R,5S)-3,4,5-trimethylpiperazin-1-yl]phenyl]-6-methoxy-4-(trifluoromethyl)pyridine-3-carboxamide]"
2,0.944,"C[C@@H]1CN(c2cc(F)c(-c3ccnc(NC4CCCCC4)n3)cc2NC(=O)c2c[nH]c(=O)cc2C(F)(F)F)C[C@H](C)N1C [Example 537, N-[5-[2-(cyclohexylamino)pyrimidin-4-yl]-4-fluoro-2-[(3R,5S)-3,4,5-trimethylpiperazin-1-yl]phenyl]-6-oxo-4-(trifluoromethyl)-1H-pyridine-3-carboxamide]"
3,5.15,"C[C@@H]1CN(c2cc(F)c(-c3csc(N4CCOCC4)n3)cc2NC(=O)c2cn(C)c(=O)cc2C(F)F)C[C@H](C)N1C [Example 622, 4-(difluoromethyl)-N-[4-fluoro-5-(2-morpholin-4-yl-1,3-thiazol-4-yl)-2-[(3R,5S)-3,4,5-trimethylpiperazin-1-yl]phenyl]-1-methyl-6-oxopyridine-3-carboxamide]"
4,2.94,"C[C@@H]1CN(c2cc(F)c(-c3nc(C#N)cs3)cc2NC(=O)c2c[nH]c(=O)cc2C(F)(F)F)C[C@H](C)N1C [Example 446, N-[5-(4-cyano-1,3-thiazol-2-yl)-4-fluoro-2-[(3R,5S)-3,4,5-trimethylpiperazin-1-yl]phenyl]-6-oxo-4-(trifluoromethyl)-1H-pyridine-3-carboxamide]"
5,1.18,"C[C@@H]1CN(c2cc(F)c(-c3ccn(C)c(=O)c3)cc2NC(=O)c2c[nH]c(=O)cc2C(F)(F)F)C[C@H](C)N1C [Example 567, N-[4-fluoro-5-(1-methyl-2-oxopyridin-4-yl)-2-[(3R,5S)-3,4,5-trimethylpiperazin-1-yl]phenyl]-6-oxo-4-(trifluoromethyl)-1H-pyridine-3-carboxamide]"
6,0.748,"C[C@@H]1CN(c2cc(F)c(-c3csc(N4CCOCC4)n3)cc2NC(=O)c2c[nH]c(=O)cc2C(F)(F)F)C[C@H](C)N1C [Example 616, N-[4-fluoro-5-(2-morpholin-4-yl-1,3-thiazol-4-yl)-2-[(3R,5S)-3,4,5-trimethylpiperazin-1-yl]phenyl]-6-oxo-4-(trifluoromethyl)-1H-pyridine-3-carboxamide]"

# The remaining lines, values behind:
row,Structure (SMILES),Kd [nM]
1,"C[C@@H]1CN(c2ccc(-c3cc(NC(=O)c4c[nH]c(=O)cc4C(F)F)c(N4CCN(C)[C@@H](C)C4)cc3F)cn2)CCO1 [Example 509, 4-(difluoromethyl)-N-[4-fluoro-2-[(3S)-3,4-dimethylpiperazin-1-yl]-5-[6-[(2R)-2-methylmorpholin-4-yl]pyridin-3-yl]phenyl]-6-oxo-1H-pyridine-3-carboxamide]",0.947
2,"C[C@@H]1CN(c2cc(F)c(-c3ccc4c(c3)ncn4C)cc2NC(=O)c2cn(C)c(=O)cc2C(F)F)C[C@H](C)N1C [Example 680, 4-(difluoromethyl)-N-[4-fluoro-5-(1-methylbenzimidazol-5-yl)-2-[(3R,5S)-3,4,5-trimethylpiperazin-1-yl]phenyl]-1-methyl-6-oxopyridine-3-carboxamide]",58.2
3,"C[C@@H]1CN(c2ccc(-c3cc(NC(=O)c4cn(C)c(=O)cc4C(F)(F)F)c(N4C[C@@H](C)N(C)[C@@H](C)C4)cc3F)cn2)C[C@H](C)O1 [Example 422, N-[4-fluoro-5-[6-[(2R,6S)-2,6-dimethylmorpholin-4-yl]pyridin-3-yl]-2-[(3S,5R)-3,4,5-trimethylpiperazin-1-yl]phenyl]-1-methyl-6-oxo-4-(trifluoromethyl)pyridine-3-carboxamide]",2.43
4,"C[C@@H]1CN(c2nccc(-c3cc(NC(=O)c4ccc(F)cc4C(F)(F)F)c(N4CCN(C)[C@H](C)C4)cc3F)n2)CCO1 (stereo in doubt) [Example 660, 4-fluoro-N-[4-fluoro-2-[(3R)-3,4-dimethylpiperazin-1-yl]-5-[2-[(2R)-2-methylmorpholin-4-yl]pyrimidin-4-yl]phenyl]-2-(trifluoromethyl)benzamide]",0.29
5,"CC1CN(c2cc(F)c(C3=CCN(C(=O)OC4CC(F)(F)C4)CC3)cc2NC(=O)c2ccc(F)cc2C(F)(F)F)CCN1C (stereo in doubt) [Example 707, (3,3-difluorocyclobutyl) 4-[2-fluoro-5-[[4-fluoro-2-(trifluoromethyl)benzoyl]amino]-4-[(3R)-3,4-dimethylpiperazin-1-yl]phenyl]-3,6-dihydro-2H-pyridine-1-carboxylate]",2.16
6,"C[C@@H]1CN(c2cc(F)c(C3=CCN(C(=O)OC4CC(F)(F)C4)C3)cc2NC(=O)c2c[nH]c(=O)cc2C(F)F)C[C@H](C)N1C [Example 637, 3,3-Difluorocyclobutyl 3-(5-(4-(difluoromethyl)-6-oxo-1,6-dihydropyridine-3-carboxamido)-2-fluoro-4-((3S,5R)-3,4,5-trimethylpiperazin-1-yl)phenyl)-2,5-dihydro-1H-pyrrole-1-carboxylate]",2.26
7,"C[C@@H]1CN(c2nccc(-c3cc(NC(=O)c4ccc(F)cc4C(F)(F)F)c(N4CCN(C)[C@@H](C)C4)cc3F)n2)CCO1 [Example 738, 4-fluoro-N-[4-fluoro-2-[(3S)-3,4-dimethylpiperazin-1-yl]-5-[2-[(2R)-2-methylmorpholin-4-yl]pyrimidin-4-yl]phenyl]-2-(trifluoromethyl)benzamide]",4
8,"CC1CN(c2cc(F)c(-c3ccc(C(N)=O)c(F)c3)cc2NC(=O)c2ccc(F)cc2C(F)(F)F)CCN1C (stereo in doubt) [Example 555, 2-fluoro-4-[2-fluoro-5-[[4-fluoro-2-(trifluoromethyl)benzoyl]amino]-4-[(3R)-3,4-dimethylpiperazin-1-yl]phenyl]benzamide]",2.94
